Assays:
[1] = Presence of at least one case with successful reintroduction. [column 'REINT' in source]; details: human
[2] = human
[3] = human, serum, 4383 h
[4] = human; remark: listed apart in the source
[5] = human; remark: listed apart in the source
[6] = human; remark: listed apart in the source
[7] = Proposed mechanism(s) of liver damage. [column 'MEC' in source]; details: human
[8] = Times to onset, minimal and maximal, observed in the indexed observations. [column 'DELAI' in source]; details: human
[9] = human, serum
[10] = human; remark: listed apart in the source
[11] = human; remark: listed apart in the source
[12] = human; remark: listed apart in the source
[13] = human, serum; remark: listed apart in the source
[14] = human; remark: listed apart in the source
[15] = Highest frequency of acute liver toxicity observed during clinical trials, expressed as a percentage. [column '% AIGUE' in source]; details: human
[16] = Highest frequency of moderate liver toxicity observed during clinical trials, expressed as a percentage. [column '% BIOL' in source]; details: human
[17] = human; remark: listed apart in the source
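For Hepatotoxicity (association with vascular disease) in this document: count of indexed literature references reporting vascular liver injury in humans, e.g. peliosis hepatitis, hepatic veno-occlusive disease or Budd-Chiari syndrome.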
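For Hepatotoxicity (benign tumour) in this document: value is a count of indexed literature references citing a benign tumour confirmed by histopathology.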
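For Hepatotoxicity (choleostasis) in this document: human cholestatic liver injury, shown by histopathology or by peak ALT or AST elevation over alkaline phosphatase ratio below 2, value counts indexed literature reports.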
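For Hepatotoxicity (chronic liver disease) in this document: chronic liver injury confirmed by histopathology or persistently raised serum aminotransferase activity beyond 6 months, value given as the count of indexed literature references.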
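For Hepatotoxicity (cirrhosis) in this document: value is a count of indexed literature references reporting cirrhosis confirmed by histopathology.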
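For Hepatotoxicity (cytolytic) in this document: human cytolytic liver injury, shown by histopathology or by a ratio above 5 of peak ALT or AST elevation to alkaline phosphatase elevation, value counts indexed references.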
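For Hepatotoxicity (granulomatous hepatitis) in this document: value is a count of indexed literature references reporting granulomatous liver disease confirmed by histopathology.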
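For Hepatotoxicity (malignant tumour) in this document: malignant tumour confirmed by histopathology, value gives the count of indexed literature references reporting it.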
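For Hepatotoxicity (severe hepatitis) in this document: human clinical data: severe hepatitis, meaning potentially life-threatening liver failure or clinically observed cases, the value counts how many indexed literature references report it.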
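For Hepatotoxicity (steatosis) in this document: steatosis confirmed by histopathology, value is the count of indexed references.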

Compound | Hepatotoxicity (successful reintroduction) [1] | Hepatotoxicity (granulomatous hepatitis) [2] | Hepatotoxicity (chronic liver disease) [3] | Hepatotoxicity (association with vascular disease) [4] | Hepatotoxicity (cirrhosis) [5] | Hepatotoxicity (choleostasis) [6] | Hepatotoxicity (mechanism) [7] | Hepatotoxicity (time to onset) [8] | Hepatotoxicity (acute) [9] | Hepatotoxicity (cytolytic) [10] | Hepatotoxicity (malignant tumour) [11] | Hepatotoxicity (severe hepatitis) [12] | Hepatotoxicity (moderate) [13] | Hepatotoxicity (benign tumour) [14] | Hepatotoxicity (acute) [15] [%] | Hepatotoxicity (moderate) [16] [%] | Hepatotoxicity (steatosis) [17] | further results
Cc1onc(-c2ccccc2Cl)c1C(=O)N[C@@H]1C(=O)N2[C@@H]1SC(C)(C)[C@@H]2C(=O)O [CLOXACILLIN] | yes | 0 | 0 | 0 | 0 | 8 | Allergic | 2 days - 1 month | 9 | 0 | 0 | 0 | 5 | 0 | 0 | 25 | 0 | 
CC(C)N(CCC(C(N)=O)(c1ccccc1)c1ccccn1)C(C)C (stereo unspecified) [DISOPYRAMIDE] | yes | 0 | 1 | 0 | 0 | 10 | Allergic | 2 weeks - 1 year | 14 | 6 | 0 | 0 | 1 | 0 | 0.1 | 0.3 | 0 | 
CC[C@@H](CO)NCCN[C@@H](CC)CO [ETHAMBUTOL] | yes | 0 | 0 | 0 | 0 | 1 | Allergic | 1.5 months - 2 months | 6 | 1 | 0 | 0 | 1 | 0 | 0 | 0 | 0 | 
CCc1cc(C(N)=S)ccn1 [ETHIONAMIDE] | yes |  | 0 | 0 | 0 |  |  | 1 month - 2 years | 15 |  | 0 |  | 11 | 0 |  |  | 0 | Hepatotoxicity (granulomatous hepatitis) ([2]; Liver): 0; Hepatotoxicity (choleostasis) ([6]; Liver): 6; Hepatotoxicity (mechanism) ([7]; Liver): Allergic; Hepatotoxicity (cytolytic) ([10]; Liver): 7; Hepatotoxicity (severe hepatitis) ([12]; Liver): 2; Hepatotoxicity (acute) ([15]; Liver): 5.4%; Hepatotoxicity (moderate) ([16]; Liver): 37%
OC(Cn1cncn1)(Cn1cncn1)c1ccc(F)cc1F [FLUCONAZOLE] | yes |  | 0 | 0 | 0 |  |  | 2 days - 10 months | 25 |  | 0 |  | 84 | 0 |  |  | 1 | Hepatotoxicity (granulomatous hepatitis) ([2]; Liver): 1; Hepatotoxicity (choleostasis) ([6]; Liver): 13; Hepatotoxicity (mechanism) ([7]; Liver): Dose-dependant; Hepatotoxicity (cytolytic) ([10]; Liver): 15; Hepatotoxicity (severe hepatitis) ([12]; Liver): 7; Hepatotoxicity (acute) ([15]; Liver): 6.3%; Hepatotoxicity (moderate) ([16]; Liver): 83.3%
Nc1nc(O)c2ncn(COC(CO)CO)c2n1 [GANCICLOVIR] | yes | 0 | 0 | 0 | 0 | 1 | Dose-dependant | 1 week - 26 days | 1 | 1 | 0 | 0 | 9 | 0 | 0 | 55 | 0 | 
NC(=O)NO [HYDROXYUREA] | yes | 2 | 0 | 0 | 0 | 1 | Allergic | 1 day - 3 months | 4 | 3 | 0 | 1 | 5 | 0 | 0 | 12.5 | 0 | 
O=C(CCCCC(=O)Nc1c(I)cc(I)c(C(=O)O)c1I)Nc1c(I)cc(I)c(C(=O)O)c1I [IODIPAMIDE] | yes | 0 | 0 | 0 | 0 | 0 | Dose-dependant | 3 days - 1 week | 6 | 6 | 0 | 0 | 2 | 0 | 0 | 18.3 | 1 | 
CC(C)NNC(=O)COc1ccc(Cl)cc1 [IPROCLOZIDE] | yes | 0 | 0 | 0 | 0 | 1 | Toxic Metabolite | 1 week - 1 month | 3 | 3 | 0 | 2 | 0 | 0 | 0 | 0 | 0 | 
Cc1oncc1C(=O)Nc1ccc(C(F)(F)F)cc1 [LEFLUNOMIDE] | yes | 0 | 0 | 0 | 1 | 0 | Dose-dependant | 4 weeks - 20 months | 6 | 5 | 0 | 3 | 36 | 0 | 10 | 56.7 | 1 | 
CN1C[C@H](CC#N)C[C@@H]2c3cccc4[nH]c(Cl)c(c34)C[C@H]21 [LERGOTRILE] | yes | 0 | 0 | 0 | 0 | 0 | Dose-dependant | 4 days - 5 months | 5 | 4 | 0 | 0 | 6 | 0 | 15.8 | 63.2 | 0 | 
Cc1cccc(Nc2ccccc2C(=O)O)c1C [MEFENAMIC ACID] | yes |  | 0 | 0 | 0 |  |  | 2 weeks | 3 |  | 0 |  | 0 | 0 |  |  | 0 | Hepatotoxicity (granulomatous hepatitis) ([2]; Liver): 0; Hepatotoxicity (choleostasis) ([6]; Liver): 1; Hepatotoxicity (mechanism) ([7]; Liver): Allergic; Hepatotoxicity (cytolytic) ([10]; Liver): 2; Hepatotoxicity (severe hepatitis) ([12]; Liver): 1; Hepatotoxicity (acute) ([15]; Liver): 0%; Hepatotoxicity (moderate) ([16]; Liver): 0%
CC(=O)Oc1cc(C(C)C)c(OCCN(C)C)cc1C [MOXISYLYTE] | yes | 0 | 0 | 0 | 0 | 1 | Allergic, Dose-dependant | 8 days - 3 months | 5 | 5 | 0 | 0 | 1 | 0 | 0 | 0 | 0 | 

Reference: ChEMBL document CHEMBL3137667, “[Drug-induced liver injury; fourteenth updated edition of the bibliographic database of liver injuries and related drugs]” (Gastroenterol Clin Biol, 2004)
